Series [1] has as its target T1, recombinant human transglutaminase 2 (Homo sapiens, UniProt P21980).
T1 construct: purchased Zedira T022
T1 sequence (P21980 1-687): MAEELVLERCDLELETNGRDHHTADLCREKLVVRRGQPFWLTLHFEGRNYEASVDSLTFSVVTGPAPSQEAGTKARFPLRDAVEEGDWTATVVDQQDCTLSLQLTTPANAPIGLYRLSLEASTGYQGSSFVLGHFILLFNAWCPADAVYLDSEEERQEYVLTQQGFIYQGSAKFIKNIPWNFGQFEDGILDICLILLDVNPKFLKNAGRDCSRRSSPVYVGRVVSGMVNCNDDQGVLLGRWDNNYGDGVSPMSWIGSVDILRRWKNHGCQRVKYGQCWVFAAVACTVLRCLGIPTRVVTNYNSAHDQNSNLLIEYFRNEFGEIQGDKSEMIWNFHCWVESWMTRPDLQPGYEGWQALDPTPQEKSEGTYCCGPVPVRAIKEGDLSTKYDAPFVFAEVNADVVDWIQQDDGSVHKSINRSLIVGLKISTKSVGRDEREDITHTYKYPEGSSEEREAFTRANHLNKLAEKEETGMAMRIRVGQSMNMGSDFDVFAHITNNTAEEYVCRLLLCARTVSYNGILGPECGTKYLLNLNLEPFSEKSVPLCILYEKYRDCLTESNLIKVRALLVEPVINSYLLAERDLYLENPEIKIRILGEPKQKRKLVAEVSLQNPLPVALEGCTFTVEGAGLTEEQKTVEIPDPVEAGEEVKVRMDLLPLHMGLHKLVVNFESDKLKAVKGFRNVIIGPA
The experiment in a line: Transglutaminase assay (dansylcadaverine incorporation into dimethylcasein, DCC-assay). Type of series: biochemical. The note with it: recombinant human TG2 10 nM, dansylcadaverine/dimethylcasein, 37° C. The gist of the method: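 IC50 derived from fluorescence slope between 20 and 30 min (λex 330 nm, λem 500 nm, 37 °C), expressed relative to a 2% DMSO control. Reaction: 10 nM recombinant human TG2, 4 μM dimethylcasein, 16.7 μM dansylcadaverine, 10 mM CaCl2 and glutathione, pH 8.0.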

A short description of series [2]: Log D shake flask method (octanol / PBS pH 7.4, HPLC). As to conditions: octanol/phosphate-buffered saline (PBS); octanol / PBS pH 7.4, shake flask. Type of series: physicochemical. The method, then: In order to classify the inventive compounds according to their lipophilicity, Log D values (distribution coefficient) were determined by means of the well-established shake flask method, measuring the partition of a compound between an octanol and phosphate-buffered saline (PBS, pH 7.4) by HPLC.

Series [3] is described as follows: Caco-2 permeability assay (CacoReady kit). It is filed as in vitro ADME. The note with it: human. Put shortly:
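Apparent permeability coefficients (Papp) were measured across Caco-2 cell barriers using a ready-to-use kit run per the supplier's protocol. Values serve as a predictor of oral/intestinal bioavailability.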
(Passage across Caco-2 layers is used to estimate intestinal permeability.)

With `COC(=O)/C=C/CC[C@H](NC(=O)c1snnc1C)C(=O)Nc1cccn(CC(=O)N[C@@H]2C[C@H]3CC[C@@H]2C3)c1=O` [III-110, (S,E)-methyl 7-(1-(2-((1R,2R,4S)-bicyclo[2.2.1]heptan-2-ylamino)-2-oxoethyl)-2-oxo-1,2-dihydropyridin-3-ylamino)-6-(4-methyl-1,2,3-thiadiazole-5-carboxamido)-7-oxohept-2-enoate], the IC50 (as a rule, the concentration that gives 50% inhibition) in series [1] is less than 25 nM. The logD (as a rule, the decadic logarithm of the distribution of all forms, ionised or not, between an organic phase and buffer at a given pH) in series [2] lay in the range of 1 to 3. The Papp (in general, a coefficient for how fast a substance crosses the barrier) in series [3] was less than 1 ×10⁻⁶ cm/s.

Regarding `COC(=O)/C=C/CC[C@H](NC(=O)c1ccnn1C)C(=O)Nc1cccn(CC(=O)N[C@@H]2C[C@H]3CC[C@@H]2C3)c1=O` [III-111, (S,E)-methyl 7-(1-(2-((1R,2R,4S)-bicyclo[2.2.1]heptan-2-ylamino)-2-oxoethyl)-2-oxo-1,2-dihydropyridin-3-ylamino)-6-(1-methyl-1H-pyrazole-5-carboxamido)-7-oxohept-2-enoate], the IC50 in series [1] is less than 25 nM. In series [2], this compound yielded a logD of 1 to 3. In series [3], this compound yielded a Papp of less than 1 ×10⁻⁶ cm/s.

For the compound `COC(=O)/C=C/CC[C@H](NC(=O)c1snnc1C)C(=O)Nc1cccn(CC(=O)NC23CC4CC(C)(CC(C)(C4)C2)C3)c1=O` [III-112, (S,E)-methyl 7-(1-(2-(3,5-dimethyladamantane-1-amino)-2-oxoethyl)-2-oxo-1,2-dihydropyridin-3-ylamino)-6-(4-methyl-1,2,3-thiadiazole-5-carboxamido)-7-oxohept-2-enoate], the IC50 in series [1] is less than 25 nM. Moreover, in series [2], the logD was 1 to 3. The Papp in series [3] was less than 1 ×10⁻⁶ cm/s.

Take `COC(=O)/C=C/CC[C@H](NC(=O)c1ccnn1C)C(=O)Nc1cccn(CC(=O)NC23CC4CC(C)(CC(C)(C4)C2)C3)c1=O` [III-113, (S,E)-methyl 7-(1-(2-(3,5-dimethyladamantane-1-amino)-2-oxoethyl)-2-oxo-1,2-dihydropyridin-3-ylamino)-6-(1-methyl-1H-pyrazole-5-carboxamido)-7-oxohept-2-enoate]: in series [1], the IC50 was less than 25 nM. Besides, the logD in series [2] was in the range of 1 to 3. Besides, the Papp in series [3] is less than 1 ×10⁻⁶ cm/s.

With `COC(=O)/C=C/CC[C@H](NC(=O)c1cnnn1C)C(=O)Nc1cccn(CC(=O)NC23CC4CC(C)(CC(C)(C4)C2)C3)c1=O` [III-114, (S,E)-methyl 7-(1-(2-(3,5-dimethyladamantane-1-amino)-2-oxoethyl)-2-oxo-1,2-dihydropyridin-3-ylamino)-6-(1-methyl-1H-1,2,3-triazole-5-carboxamido)-7-oxohept-2-enoate], the IC50 in series [1] is less than 25 nM. This compound registered a logD in series [2] of 1 to 3. The Papp in series [3] was less than 1 ×10⁻⁶ cm/s.

Regarding `COC(=O)/C=C/CC[C@H](NC(=O)c1snnc1C)C(=O)Nc1cccn(CC(=O)N[C@@H]2C[C@@H]3CC[C@H]2C3)c1=O` [III-115, (S,E)-methyl 7-(1-(2-((1S,2R,4R)-bicyclo[2.2.1]heptan-2-ylamino)-2-oxoethyl)-2-oxo-1,2-dihydropyridin-3-ylamino)-6-(4-methyl-1,2,3-thiadiazole-5-carboxamido)-7-oxohept-2-enoate], the IC50 in series [1] is less than 25 nM. Further, the logD in series [2] was 1 to 3. This compound also gave a Papp in series [3] of less than 1 ×10⁻⁶ cm/s.

As for `COC(=O)/C=C/CC[C@H](NC(=O)c1cnnn1C)C(=O)Nc1cccn(CC(=O)N[C@@H]2C[C@@H]3CC[C@H]2C3)c1=O` [III-116, (S,E)-methyl 7-(1-(2-((1S,2R,4R)-bicyclo[2.2.1]heptan-2-ylamino)-2-oxoethyl)-2-oxo-1,2-dihydropyridin-3-ylamino)-6-(1-methyl-1H-1,2,3-triazole-5-carboxamido)-7-oxohept-2-enoate], the IC50 in series [1] was less than 25 nM. This compound also yielded a logD in series [2] of less than 1. Besides, the Papp in series [3] is less than 1 ×10⁻⁶ cm/s.

For the compound `COC(=O)/C=C/CC[C@H](NC(=O)c1ccnn1C)C(=O)Nc1cccn(CC(=O)N[C@@H]2C[C@@H]3CC[C@H]2C3)c1=O` [III-117, (S,E)-methyl 7-(1-(2-((1S,2R,4R)-bicyclo[2.2.1]heptan-2-ylamino)-2-oxoethyl)-2-oxo-1,2-dihydropyridin-3-ylamino)-6-(1-methyl-1H-pyrazole-5-carboxamido)-7-oxohept-2-enoate], in series [1], the IC50 is less than 25 nM. In addition, in series [2], the logD was 1 to 3. In series [3], this compound registered a Papp of less than 1 ×10⁻⁶ cm/s.

Regarding `COC(=O)/C=C/CC[C@H](NC(=O)c1snnc1C)C(=O)Nc1cccn(CC(=O)NC2C3CC4CC(C3)CC2C4)c1=O` (stereo partly drawn) [III-118, (S,E)-methyl 7-(1-(2-(2-adamantylamino)-2-oxoethyl)-2-oxo-1,2-dihydropyridin-3-ylamino)-6-(4-methyl-1,2,3-thiadiazole-5-carboxamido)-7-oxohept-2-enoate], the IC50 in series [1] was less than 25 nM. Also, the logD in series [2] was in the range of 1 to 3. This compound also registered a Papp in series [3] of less than 1 ×10⁻⁶ cm/s.

As for `COC(=O)/C=C/CC[C@H](NC(=O)c1ccnn1C)C(=O)Nc1cccn(CC(=O)NC2C3CC4CC(C3)CC2C4)c1=O` (stereo partly drawn) [III-119, (S,E)-methyl 7-(1-(2-(2-adamantylamino)-2-oxoethyl)-2-oxo-1,2-dihydropyridin-3-ylamino)-6-(1-methyl-1H-pyrazole-5-carboxamido)-7-oxohept-2-enoate], the IC50 in series [1] was less than 25 nM. In series [2], this compound yielded a logD of less than 1. Also, in series [3], the Papp was less than 1 ×10⁻⁶ cm/s.

Turning to `COC(=O)/C=C/CC[C@H](NC(=O)c1snnc1C)C(=O)Nc1cccn(CC(=O)N[C@H]2C[C@H]3CC[C@]2(C)C3(C)C)c1=O` [III-120, (S,E)-methyl 6-(4-methyl-1,2,3-thiadiazole-5-carboxamido)-7-oxo-7-(2-oxo-1-(2-oxo-2-((1R,2S,4R)-1,7,7-trimethylbicyclo[2.2.1]heptan-2-ylamino)ethyl)-1,2-dihydropyridin-3-ylamino)hept-2-enoate], the IC50 in series [1] is less than 25 nM. The logD in series [2] is 1 to 3. This compound also showed a Papp in series [3] of less than 1 ×10⁻⁶ cm/s.

Take `COC(=O)/C=C/CC[C@H](NC(=O)c1cnnn1C)C(=O)Nc1cccn(CC(=O)N[C@H]2C[C@H]3CC[C@]2(C)C3(C)C)c1=O` [III-121, (S,E)-methyl 6-(1-methyl-1H-1,2,3-triazole-5-carboxamido)-7-oxo-7-(2-oxo-1-(2-oxo-2-((1R,2S,4R)-1,7,7-trimethylbicyclo[2.2.1]heptan-2-ylamino)ethyl)-1,2-dihydropyridin-3-ylamino)hept-2-enoate]: the IC50 in series [1] is less than 25 nM. The compound also had a logD in series [2] of 1 to 3. In series [3], this compound displayed a Papp of less than 1 ×10⁻⁶ cm/s.

Turning to `COC(=O)/C=C/CC[C@H](NC(=O)c1ccnn1C)C(=O)Nc1cccn(CC(=O)N[C@H]2C[C@H]3CC[C@]2(C)C3(C)C)c1=O` [III-122, (S,E)-methyl 6-(1-methyl-1H-pyrazole-5-carboxamido)-7-oxo-7-(2-oxo-1-(2-oxo-2-((1R,2S,4R)-1,7,7-trimethylbicyclo[2.2.1]heptan-2-ylamino)ethyl)-1,2-dihydropyridin-3-ylamino)hept-2-enoate], in series [1], the IC50 is 25 to 250 nM. In addition, in series [2], the logD lay within 1 to 3. Further, the Papp in series [3] is less than 1 ×10⁻⁶ cm/s.

Turning to `COC(=O)/C=C/CC[C@H](NC(=O)c1sc(C(F)(F)F)nc1C)C(=O)Nc1cccn(CC(=O)NC23CC4CC(C)(CC(C)(C4)C2)C3)c1=O` [III-123, (S,E)-methyl 7-(1-(2-(3,5-dimethyladamantane-1-amino)-2-oxoethyl)-2-oxo-1,2-dihydropyridin-3-ylamino)-6-(4-methyl-2-(trifluoromethyl)thiazole-5-carboxamido)-7-oxohept-2-enoate], the IC50 in series [1] was less than 25 nM. In series [2], this compound had a logD of 3 to 5. In series [3], this compound came in with a Papp of 1 to 10 ×10⁻⁶ cm/s.

Values taken from patent publication US20240317708A1, “INHIBITORS OF TRANSGLUTAMINASES” (ZEDIRA GMBH, priority 2021, published 2024).
